Structures can show the parent of a compound that is named as a salt.
Legend:
[1] = Caco-2 permeation experiment; format: in vitro ADME; conditions: human
Method: (§1) Caco-2 Permeation Experiment
(§2) Culture medium: 10%FBS+1% unnecessary amino acid+90%DMEM (high glucose)
(§3) Permeation solution (pH 7.4): HBSS (Ca^+, Mg^+)+10 mM Hepes
(§4) Compound reservation solution: an amount of the test compound was weighted and added with a certain amount of DMSO to formulate a 10 mM reservation solution.
(§5) Cells were inoculated to Transwell cells in a quantity of 6*10^4/cm^2, and at the A side (top side), were added with 200 μL of the culture medium, and at the B side (base side), were added with 1000 μL of the culture medium. After the inoculation, the solution was replaced once every 2 days, and the culture was conducted for 21 to 28 day.
(§6) After 21 to 28 days since the inoculation of Caco-2 cells, the transmembrane resistance was measured.
(§7) Permeation experiment: after the transepithelial electrical resistance was measured, the buffer solution at the two sides was removed by suction, then added thereto the solution according to the following system.
(§8) According to the experimental conditions as shown in the following Table 15, the reaction solution in each experimental group was formulated: […]
(§9) Sample treatment: after 2-hours incubation, 50 μL of the permeation solution were sucked up from each side of side A and side B, and equivalent volume of cold acetonitrile was added to terminate the reaction, and the concentrations of the compound at the A and B sides were measured by LC-MS/MS. The apparent permeation (Papp) and the Efflux Ratio were calculated according to the following equations:
(§10) Efflux Ratio=Papp(BA)/Papp (AB)
(§11) wherein, dCr/dt is the integration of the concentration of the compound at the base side realted to time, Vr is the reaction volume at the base side, A is the area of a single layer of cells, being 0.33 cm^2, and C0 is the concentration of the compound at the top side.

Caco-2 cells = experiment: Caco-2 permeation experiment; format: in vitro ADME; conditions: 2 μM
Method: as §1, §2, §3, §4, §5, §6, §7, §8, §9, §10, §11

- Papp A→B at 120 min, 2 μM ([1]; Caco-2, 120 min, pH 7.4, read-out: Average apparent permeability A to B): 2.6 ×10⁻⁶ cm/s
- Papp B→A at 120 min, 2 μM ([1]; Caco-2, 120 min, pH 7.4, read-out: Average apparent permeability B to A): 3.26 ×10⁻⁶ cm/s
- efflux ratio at 2 h, 2 μM ([1]; Caco-2, pH 7.4, Papp(BA)/Papp(AB)): 1.26
- Average apparent permeability A to B (Caco-2 cells; 120 min, pH 7.4): high permeability
- Efflux ratio (Caco-2 cells; Papp(BA)/Papp(AB)): low possibility of active efflux
SMILES: CC1(C)Cc2cc(OC/C(=C/F)CN)ccc2C(=O)N1 [HC38-E, (E)-6-((2-(aminomethyl)-3-fluoroallyl)oxy)-3,3-dimethyl-3,4-dihydroisoquinolin-1(2H)-one hydrochloride]
